According to ChEMBL document CHEMBL5143555, “Potentiating the intracellular killing of Staphylococcus aureus by dihydroquinazoline analogues as NorA efflux pump inhibitor” (Bioorg Med Chem, 2022):
In brackets after ≈: the same amount, converted by molar mass. Activity calls are given as the source filed them. The rule behind the calls is not given here.

How the values were obtained:
Staphylococcus aureus [1] = assay: Antibacterial activity against Staphylococcus aureus 1199 measured after 24 hrs by Muller Hinton broth based MTT assay; assay type: functional
Staphylococcus aureus [2] = assay: Antibacterial activity against Staphylococcus aureus K1758 measured after 24 hrs by Muller Hinton broth based MTT assay; assay type: functional
Staphylococcus aureus [3] = assay: Antibacterial activity against Staphylococcus aureus 1199B measured after 24 hrs by Muller Hinton broth based MTT assay; assay type: functional
[4] = biological target: T1, Quinolone resistance protein NorA (Staphylococcus aureus) (UniProt P0A0J7); assay: Inhibition of NorA in Staphylococcus aureus 1199B assessed as potentiation of ethidium bromide-induced antibacterial activity by measuring ethidium bromide MIC at sub MIC
T1 sequence (whole entry): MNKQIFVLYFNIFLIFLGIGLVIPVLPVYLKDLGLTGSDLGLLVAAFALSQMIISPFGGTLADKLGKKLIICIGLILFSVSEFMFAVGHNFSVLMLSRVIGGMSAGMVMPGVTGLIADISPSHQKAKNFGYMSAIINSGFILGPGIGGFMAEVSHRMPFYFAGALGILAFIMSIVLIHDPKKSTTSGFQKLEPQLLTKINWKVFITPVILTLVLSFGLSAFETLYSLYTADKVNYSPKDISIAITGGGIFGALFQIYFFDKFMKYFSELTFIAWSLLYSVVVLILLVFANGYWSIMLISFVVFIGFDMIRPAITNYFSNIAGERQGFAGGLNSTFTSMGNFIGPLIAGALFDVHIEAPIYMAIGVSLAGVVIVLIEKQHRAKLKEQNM

[5] = biological target: T1, Quinolone resistance protein NorA (Staphylococcus aureus); assay: Inhibition of NorA in Staphylococcus aureus 1199B assessed as potentiation of norfloxacin-induced antibacterial activity by measuring fractional inhibitory concentration
[6] = biological target: T1, Quinolone resistance protein NorA (Staphylococcus aureus); assay: Inhibition of NorA in Staphylococcus aureus 1199B assessed as potentiation of 3.1 ug/mL norfloxacin-induced bactericidal activity by measuring log reduction in bacterial count at 3.9 ug/mL measured after 24 hrs by time-kill kinetics assay; settings: dose 3.9 µg/ml
[7] = biological target: T1, Quinolone resistance protein NorA (Staphylococcus aureus); assay: Inhibition of NorA in Staphylococcus aureus 1199B assessed as potentiation of ethidium bromide-induced antibacterial activity by measuring ethidium bromide MIC at sub MIC relative to ethidium bromide MIC alone
[8] = biological target: T1, Quinolone resistance protein NorA (Staphylococcus aureus); assay: Inhibition of NorA in Staphylococcus aureus 1199B assessed as accumulation of norfloxacin at 3.9 ug/ml by measuring fluorescence intensity measured at 5 mins interval for 40 mins by fluorescence spectrophotometry; settings: dose 3.9 µg/ml
[9] = Cytotoxicity against kidney epithelial cells (unknown origin) assessed as cell viability at 50 ug/mL measured after 24 hrs by alamar blue assay relative to control; assay type: toxicity, cell-based, Fetal kidney cell; settings: at 50 µg/mL, read-out: Activity
[10] = biological target: T1, Quinolone resistance protein NorA (Staphylococcus aureus); assay: Inhibition of NorA in Staphylococcus aureus 1199B assessed as potentiation of ethidium bromide-induced antibacterial activity by measuring fractional inhibitory concentration
[11] = biological target: T1, Quinolone resistance protein NorA (Staphylococcus aureus); assay: Inhibition of NorA in Staphylococcus aureus 1199B assessed as potentiation of ethidium bromide-induced bactericidal activity at 62.5 ug/ml measured after 24 hrs by time-kill kinetics assay; settings: dose 62.5 µg/ml
[12] = biological target: T1, Quinolone resistance protein NorA (Staphylococcus aureus); assay: Inhibition of NorA in Staphylococcus aureus 1199B assessed as accumulation of ethidium bromide at 3.9 ug/ml by measuring fluorescence intensity measured at 5 mins interval for 40 mins by fluorescence spectrophotometry; settings: dose 3.9 µg/ml
[13] = biological target: T1, Quinolone resistance protein NorA (Staphylococcus aureus); assay: Inhibition of NorA in Staphylococcus aureus 1199B assessed as potentiation of norfloxacin-induced antibacterial activity by measuring Norfloxacin MIC at sub MIC
[14] = biological target: T1, Quinolone resistance protein NorA (Staphylococcus aureus); assay: Inhibition of NorA in Staphylococcus aureus 1199B assessed as potentiation of norfloxacin-induced antibacterial activity by measuring Norfloxacin MIC at sub MIC relative to norfloxacin MIC alone

SMILES	MIC (Staphylococcus aureus [1])	MIC (Staphylococcus aureus [2])	MIC (Staphylococcus aureus [3])	other results
O=[N+]([O-])c1ccc(C2N=C(c3ccccc3)c3ccccc3N2)cc1 (centres undefined)	125 µg/mL (≈ 380 µM)	250 µg/mL (≈ 759 µM)	> 1000 µg/mL	
Fc1ccccc1C1=NC(c2ccccc2)Nc2ccc(Cl)cc21 (centres undefined)	62.5 µg/mL (≈ 186 µM)	250 µg/mL (≈ 742 µM)	500 µg/mL (≈ 1480 µM)	
COc1ccc(C2N=C(c3ccccc3)c3ccccc3N2)cc1 (centres undefined)	125 µg/mL (≈ 398 µM)	250 µg/mL (≈ 795 µM)	500 µg/mL (≈ 1590 µM)	
CC1(C)S[C@@H]2[C@H](NC(=O)[C@H](N)c3ccc(O)cc3)C(=O)N2[C@H]1C(=O)O [AMOXICILLIN]	0.05 µg/mL (≈ 0.137 µM)	0.1 µg/mL (≈ 0.274 µM)	0.42 µg/mL (≈ 1.15 µM)	
C=CCOc1ccc(C2N=C(c3ccccc3)c3ccccc3N2)cc1 (centres undefined)	125 µg/mL (≈ 367 µM)	250 µg/mL (≈ 734 µM)	500 µg/mL (≈ 1470 µM)	
c1ccc(C2=NC(c3ccccc3)Nc3ccccc32)cc1 (centres undefined)	125 µg/mL (≈ 440 µM)	250 µg/mL (≈ 879 µM)	250 µg/mL (≈ 879 µM)	MIC [4]: 3.1 µg/mL; fractional inhibitory concentration index (FICI) [5]: 0.078; Activity [6]: > 3 log10CFU/ml; fold change (FC) [7]: 16; Flu intensity [8]: 3960; viability at 24 h, 50 ug/mL [9]: 71%; fractional inhibitory concentration index (FICI) [10]: 0.31; inhibition [11]: Active; Flu intensity [12]: 96.1; MIC [13]: 3.1 µg/mL; fold change (FC) [14]: 16
CN[C@@H]1[C@H](O[C@H]2[C@H](O[C@H]3[C@H](O)[C@@H](O)[C@H](N=C(N)N)[C@@H](O)[C@@H]3N=C(N)N)O[C@@H](C)[C@]2(O)C=O)O[C@@H](CO)[C@H](O)[C@H]1O [STREPTOMYCIN]	1.7 µg/mL (≈ 2.92 µM)	0.4 µg/mL (≈ 0.688 µM)	3.5 µg/mL (≈ 6.02 µM)	
c1ccc(C2=NC(c3ccco3)Nc3ccccc32)cc1 (centres undefined)	125 µg/mL (≈ 456 µM)	250 µg/mL (≈ 911 µM)	500 µg/mL (≈ 1820 µM)	
CC(=O)NC[C@H]1CN(c2ccc(N3CCOCC3)c(F)c2)C(=O)O1 [LINEZOLID]	0.85 µg/mL (≈ 2.52 µM)	0.1 µg/mL (≈ 0.296 µM)	1.75 µg/mL (≈ 5.19 µM)	
CC[C@H]1OC(=O)[C@H](C)[C@@H](O[C@H]2C[C@@](C)(OC)[C@@H](O)[C@H](C)O2)[C@H](C)[C@@H](O[C@@H]2O[C@H](C)C[C@H](N(C)C)[C@H]2O)[C@](C)(O)C[C@@H](C)C(=O)[C@H](C)[C@@H](O)[C@]1(C)O [ERYTHROMYCIN]	0.1 µg/mL (≈ 0.136 µM)	0.1 µg/mL (≈ 0.136 µM)	0.42 µg/mL (≈ 0.572 µM)	
Brc1ccc(C2N=C(c3ccccc3)c3ccccc3N2)cc1 (centres undefined)	125 µg/mL (≈ 344 µM)	250 µg/mL (≈ 688 µM)	> 1000 µg/mL	
